Measured values reported in patent publication US6680293B2, “Use of isolated domains of type IV collagen to modify cell and tissue interactions” (Kansas University Medical Center, priority 1994, dated 2004).

Columns and labels:
Hydra cell aggregates = assay: Hydra cell aggregate development / morphogenesis blocking; assay type: cell-based, Hydra vulgarie; settings: 10 μM, Time 0 to 96 hr
Description: All experiments utilized Hydra vulgarie (previously named Hydra attenuata). Animals were cultured as described previously (Sarras et al., 1991a, supra) and were not fed for 24 hr prior to use.
Hydra cell aggregates were prepared according to Gierer et al., (1972, supra) with modification described by Sans et al., (1993, supra). They were incubated either in microtiter plates (NUNS, Denmark) with one aggregate/well/10 μl incubation solution or in 96-well plates (Falcon) with three to five aggregates/well/50 μl incubation solution. Antibiotics were used throughout all steps of aggregate preparation to assure that the aggregates used in this study were free of any symbionic bacterial populations (Sarra et al., 1993, supra). […] By 24 hr of cell pellet formation, hydra cell aggregates develop septate junctions between epithelial cells (Wood et at., 1980. J. Ultrastruc. Res. 70:104-117). These junctions prevent the introduction of macromolecules from medium into mesoglea. […]
Criteria for morphogenesis was as follows. […] The percentage of aggregates-with head and tentacle structures at 96 hr of development was calculated and data for each group from different experiments were pooled and plotted. […] Using an ANOVA statistical test, a P value <0.05 was taken as the level of significant difference in all groups analyzed. […]

hydra cells = assay: Inhibition of DNA synthesis in hydra cell aggregates; assay type: cell-based, Hydra vulgarie; settings: 10 μM, Time 0 to 96 hr

## NC(=O)NO [HU, hydroxyurea]
Hydra cell aggregates
  morphogenesis of hydra cell aggregates: did not inhibit
Hydra cells
  DNA synthesis: completely blocked
